# Test results: patent US12678488B2, “Batch management method for improving farrowing rate or number of piglets born alive in swine” (priority 2024, dated 2026)
# Entries after “also recorded” stand apart in the source; their conditions may differ.
# Assays:
# ICR female mice = experiment: Mouse batch farrowing with FTAI model: embryo implantation number, embryo spacing, number born alive; format: in vivo; settings: for embryo spacing upon embryo implantation: compared with batch farrowing model group
# Experimental: 6-8-week-old ICR female mice acclimatized to the laboratory mouse house environment and in a good condition were selected and divided into a batch farrowing with FTAI model group, a batch farrowing with FTAI+low-dose model group, and a batch farrowing with FTAI+high-dose model group, and 10IU PMSG was injected at 17:00 pm. At 6-8 hours after a single injection of PMSG to the batch farrowing with FTAI+low-dose model group and the batch farrowing with FTAI+high-dose model group, respectively, the groups were supplemented with a low dose of 1-[bis(4-cyanophenyl)methyl]-1,2,4-triazole (10 μg/kg·BW) and a high dose of 1-[bis(4-cyanophenyl)methyl]-1,2,4-triazole (50 μg/kg·BW), respectively, and at 46-48 hours after the injection of PMSG, the groups were then injected with prepared 10IU GnRH and then put into a breeding male mouse cage. At 7:00-9:00 the next morning, vaginal plugs were examined, and this day was recorded as day 1 (D1) of pregnancy. In the afternoon of day 5 (D5) of pregnancy, 0.4 ml of 1% Chicago blue-normal saline solution was injected into model mice at the caudal vein, and after 3 minutes of systemic circulation, the mice were sacrificed by means of cervical dislocation, the abdominal cavity was immediately cut open, and the abdominal aorta was cut for bleeding. Then, uteri and ovaries were removed with surgical ophthalmic scissors, immersed in physiological saline for washing, and then put into a 4% paraformaldehyde fixation solution for 5 minutes of morphological fixation. Blue dots on the uterus were recorded as embryo implantation sites, the number of implantation sites was counted, and patterns of embryo spacing in different groups were drawn.
# For some of the mice treated above, no intermediate test was done, and after the mice gave birth, the number born alive in each group was counted.
# [1] = tested on: Enpp2, Lpar3 and ptgs2 mRNA (LPA signalling pathway) in the uterus; experiment: Quantitative PCR of key molecules in the LPA signalling pathway in mouse uteri; format: in vivo; settings: mice, 10 μg/kg·BW
# Experimental: 6-8-week-old ICR female mice acclimatized to the laboratory mouse house environment and in a good condition were selected and divided into a batch farrowing with FTAI model group, a batch farrowing with FTAI+low-dose model group, and a batch farrowing with FTAI+high-dose model group, and 10IU PMSG was injected at 17:00 pm. […] At 7:00-9:00 the next morning, vaginal plugs were examined, and this day was recorded as day 1 (D1) of pregnancy. In the afternoon of day 5 (D5) of pregnancy, 0.4 ml of 1% Chicago blue-normal saline solution was injected into model mice at the caudal vein, and after 3 minutes of systemic circulation, the mice were sacrificed by means of cervical dislocation, the abdominal cavity was immediately cut open, and the abdominal aorta was cut for bleeding. […] Blue dots on the uterus were recorded as embryo implantation sites, the number of implantation sites was counted, and patterns of embryo spacing in different groups were drawn.
# Unfixed uteri were isolated for RNA extraction, reverse transcription and quantitative PCR detection of several key target molecules in the LPA signalling pathway, i.e., detection of Enpp2 (a gene for the expression of ATX, the key enzyme of LPA synthesis), Lpar3 (LPA receptor gene), and ptgs2 (a key gene downstream of LPAR). […]
# estradiol = experiment: Peripheral blood estradiol level in gilts after insemination by radioimmunoassay (Example 4); format: in vivo, pigs; settings: once low-dose 12-20 μg/kg·BW, day 2-day 16 after mating
# Experimental: (§1) The breed of the gilts used in this experiment was Landrace x Large White binary sows, the gilts were randomly divided into the following 3 groups, and the treatment method for each group was as follows:
# batch farrowing with FTAI: the gilts were fed with an altrenogest oral solution at 20 mg/gilt at the same time every day, for 18 days; PMSG at 1000 IU/gilt was injected intramuscularly 42 h after the last feeding with altrenogest, GnRH at 100 μg/gilt was injected intramuscularly after another 80 h, the first timed insemination was performed 24 h after the injection of GnRH, and the second timed insemination was performed after 24 h. […]
# Peripheral blood was collected from the gilts in the batch farrowing with FTAI and the batch farrowing with FTAI with supplementing with a single low dose of 1-[bis(4-cyanophenyl)methyl]-1,2,4-triazole at different times after mating, i.e., days 2, 4, 10 12, and 16 after mating, blood was collected from the anterior vena cava of the gilts and centrifuged, the supernatant was taken, stored at −20° C., and then detected for estradiol level by radioimmunoassay.
# The detection steps were as follows: 12×75 mm disposable tubes were arranged on a tube rack, and were a total radioactivity counting (tc) tube, a non-specific binding (NSB) tube, a zero standard (0) tube, standard tubes, and sample tubes, respectively. […]
# [2] = tested on: Landrace x Large White binary sows; experiment: Number of ovulated oocytes (corpora lutea) in gilts slaughtered 16 days after mating (Example 4); format: in vivo, pigs; settings: single low dose 12 μg/kg·BW, compared with batch farrowing with FTAI
# Experimental: as §1
# batch farrowing with FTAI: the gilts were fed with an altrenogest oral solution at 20 mg/gilt at the same time every day, for 18 days; PMSG at 1000 IU/gilt was injected intramuscularly 42 h after the last feeding with altrenogest, GnRH at 100 μg/gilt was injected intramuscularly after another 80 h, the first timed insemination was performed 24 h after the injection of GnRH, and the second timed insemination was performed after 24 h.
# Treatment group 1 (batch farrowing with FTAI, with supplementing with 1-[bis(4-cyanophenyl)methyl]-1,2,4-triazole (12 μg/kg·BW, orally in a single dose): The hormone treatment and mating schemes for gilts were the same as those for gilts in the batch farrowing with FTAI. The gilts were administered orally once with 1-[bis(4-cyanophenyl)methyl]-1,2,4-triazole at 12 μg/kg·BW 8 h after the injection of PMSG.
# The gilts in the batch farrowing with FTAI and the gilts in the batch farrowing with FTAI supplementing once with 1-[bis(4-cyanophenyl)methyl]-1,2,4-triazole (12 μg/kg·BW) were slaughtered. The gilts were slaughtered 16 days after mating, with 4 gilts slaughtered per group. […]
# [3] = low dose 10 μg/kg·BW, compared with batch farrowing with FTAI model group
smiles,measurement,setting,value
"N#Cc1ccc(C(c2ccc(C#N)cc2)n2cncn2)cc1 [1-[bis(4-cyanophenyl)methyl]-1,2,4-triazole]",embryo spacing upon embryo implantation,ICR female mice; high dose 50 μg/kg·BW,no effect on increasing the embryo spacing; also recorded: could not alleviate the overcrowding of embryos
same,number born alive,"ICR female mice; high dose 50 μg/kg·BW, compared with batch farrowing with FTAI model group",reduced number born alive; also recorded: decreased number born alive
same,embryo spacing upon embryo implantation,ICR female mice; low dose 10 μg/kg·BW,increased embryo spacing; also recorded: increase the spacing between embryos
same,embryo implantation number,ICR female mice; [3],no significant effect; also recorded: no significant difference
same,number born alive,ICR female mice; [3],significantly increase the number born alive
same,"Enpp2, Lpar3 and ptgs2 mRNA levels in the uteri",[1]; compared with batch farrowing with FTAI model group,significantly higher
same,"Enpp2, Lpar3 and ptgs2 mRNA levels in the uteri",[1]; compared with natural estrus group,no significant difference
same,blood estradiol (estrogen) level after mating,estradiol,no obvious change; also recorded: no significant effect
same,number of ovulated oocytes,[2],no significant effect
